“Also recorded” adds a separate entry of the source.

Here are results for one substance from US20220291203A1, “METHODS OF MEASURING CELL-MEDIATED KILLING BY EFFECTORS” (IMMUNOWAKE INC., priority 2019, published 2022).

This assay has as its system dual reporter MDA-MB-231 cells (MDA-MB-231 WT). Briefly: T cell killing in 3D tumor-fibroblast spheroids (Example 17). To be noted: nivolumab 0.5 μg/mL; 3D spheroids, 3E:1T. Format: cell-based, human. An excerpt:
Dual reporter MDA-MB-231 cell line with PD-L1 knockout (KO) (hereinafter referred to as “dual reporter MDA-MB-231 PD-L1 KO cells” or “MDA-MB-231 KO”) was constructed by co-transducing the Tet-on snLuc-GFP construct as constructed in Example 1 and CRISPR/Cas9 constructs targeting PD-L1. 3D tumor-fibroblast spheroids were generated by co-culturing 10,000 human dermal fibroblasts and 10,000 dual reporter MDA-MB-231 cells (“MDA-MB-231 WT”) or dual reporter MDA-MB-231 PD-L1 KO cells in ultra-low attachment plates for 3 days. After spheroid formation, 30,000 unstimulated primary T cells (3E:1T) were added in the presence of increasing concentrations of trispecific anti-HER2/anti-CD47/anti-CD3 antibody (serially diluted 5-fold, 1000 ng/mL-0.032 ng/mL), and without or with anti-PD-1 antibody nivolumab (0.5 μg/mL).
The trispecific anti-HER2/anti-CD47/anti-CD3 antibody (made in house) has no Fc function due to LALA mutations and cannot mediate ADCC. The cell-killing reaction was incubated for 48 hours. […] Cell culture media was taken one day post-induction with doxycycline (t=72 hr), and luminescence was measured on a GloMax Discover Microplate Reader. Percent cell survival was defined as luminescence readout at various antibody concentrations relative to the average readout with no antibody. […]

For nivolumab, the “effect of nivolumab on trispecific antibody-mediated T cell killing” value was “rescued T cell killing on dual reporter MDA-MB-231 cells; also recorded: could rescue the immunosuppression on cytotoxic T cells”.
